Results from patent publication US10508147B2, “Anti-nodal antibodies and methods of using same” (ANN AND ROBERT H. LURIE CHILDREN'S HOSPITAL OF CHICAGO, priority 2014, dated 2019).
Entries after “also recorded” stand apart in the source; their conditions may differ.

How the values were obtained:
[1] = test system: A375SM human melanoma cell line; assay: Western blot of A375SM cells treated with BRAFi (dabrafenib) or 3D1; format: cell-based; conditions: 72 hr
Procedure: To determine the level of Nodal expression in brain, kidney, liver, pancreas, heart and skeletal muscle ready to use adult tissue extracts for Western blotting (WB) were purchased from Santa Cruz Biotechnology. For WB experiments of cell lines, whole cell lysates were prepared and quantified. SDS-PAGE gel electrophoresis and WB were performed using standard techniques. PVDF membranes were blocked in 5% non-fat milk or 5% BSA and antibodies diluted in either 5% non-fat milk or 5% bovine serum albumin overnight at 4° C., depending on the manufacturer's recommendations. Signal was detected using West Pico chemiluminescence reagent (Thermo Fisher) and exposure to x-ray film.

[2] = test system: A375SM human metastatic melanoma cells; assay: A375SM orthotopic xenograft in Nude mice; format: in vivo
Procedure: Experiments were carried out to determine the in vivo effects of 3D1 mAb on primary melanoma. To this end, 500,000 C8161 cells were injected subcutaneously in Nude mice. Palpable tumors were then injected directly with either 700 μg of total 3D1 mAb or IgG control antibody (alternate day intratumoral injection of 100 μg over 14 days). Mice were then sacrificed and subcutaneous tumors harvested and processed as previously described. To evaluate the effect of 3D1 mAb in the presence of the BRAF(V600E) mutation, a third orthotopic xenograft model was established in Nude mice via subcutaneous injection of approximately 150,000 A375SM human metastatic melanoma cells. Mice were treated IP with 3D1 mAb or IgG control, as described above, or 3 mg/kg of dabrafenib.
Four micron thick, formalin fixed, paraffin embedded tissue sections were prepared and immunohistochemistry was carried out on a Dako Plus autostainer (DAKO, Inc, Carpenteria, Calif.). Following antigen retrieval and blocking steps, sections were incubated in primary antibody for 60 mins, followed by appropriate biotinylated secondary antibody (Biocare Medical, Conrad, Calif.), and then streptavidin-horseradish peroxidase (Thermo Scientific Lab Vision). Color was developed with 3,3′-diaminobenzidine substrate (Thermo Scientific Lab Vision) and sections were counterstained with hematoxylin (Biocare Medical, LLC). As a negative control, adjacent serial sections were incubated with species appropriate irrelevant IgG (Jackson ImmunoResearch Labs) at the same concentration as primary antibodies. Similar to the lung tumor burden evaluation described above, mean percentage of positive staining±SEM was determined by 2 different observers, each calculating the ratio of positive cells/total number of cells×100 for 4 separate high power fields (63× objective) from at least 2 different mice per group.

[3] = test system: 3D1 mAb; assay: ELISA epitope mapping and specificity assay of coated peptides probed with 3D1; format: binding, mouse; conditions: peptides coated at 1.0 μg/mL; 3D1 mAb 1.0 μg/mL
Procedure: Residues underlying the binding between 3D1 and Nodal were investigated by epitope mapping using a set of Nodal synthetic peptides (See FIG. 9). […] Peptides were immobilized at 1 μg/mL and probed with 3D1 at […]. Data were normalized to the binding of the peptide hNODAL (44-69) wild-type (WT). […] Most interactions were established with C43, P46, V47, E49, E50. The effect of Y58 can be on the conformation of the peptide.
Peptides used for the epitope mapping and for the specificity assay of the 3D1 mAb were coated at 1.0 μg/mL diluted in PBS; 3D1 mAb, dissolved in PBS, was used as primary antibody at 1.0 μg/mL.

[4] = test system: endogenous Nodal; assay: Western blot competition between 3D1 antigen peptide and endogenous Nodal in human embryonic stem cell lysates; format: binding; conditions: 3D1 4 μg/mL, hNodal(44-56) 10 μg/mL; H9 and H14 hESC lysates
Procedure: Thirty micrograms of H9 and H14 human embryonic stem cell total protein lysates, obtained as previously described, were separated on a 15% SDS-PAGE gel under reducing conditions and the resolved proteins were transferred onto a PVDF membrane. 50 ng of rhNodal protein were used as positive control. A Western blotting procedure was conducted: membranes were blocked, then probed with the 3D1 alone at 4.0 μg/mL in 2.5% NFDM in TBS-T and with the 3D1 mAb at 4.0 μg/mL pre-incubated with its antigen, the hNodal(44-56) peptide at 10 μg/mL. […] Blots were developed with Enhanced Chemiluminescence Western Blot Substrate (Pierce, Rockford, Ill., USA) following the manufacturer's instructions and were acquired by using a Chemidoc XRS video densitometer (Bio-Rad, Hercules, Calif., USA).

Compound	Nodal expression [1]	ERK1/2 activity (P-ERK1/2) ([1]; dabrafenib 10 nM)	mean percentage (±SEM) of nuclear P-Smad2 ([2]; IHC, N=4)	tumor volumes ([2]; after 8 days, vs IgG control)	ELISA signal for binding to 3D1 [3]	staining of endogenous Nodal by 3D1 after pre-incubation with the peptide [4]
CC(C)(C)c1nc(-c2cccc(NS(=O)(=O)c3c(F)cccc3F)c2F)c(-c2ccnc(N)n2)s1 [dabrafenib]	relatively unaffected; also recorded: only minimally affected	significantly reduced	68.7%±6.3%	trend towards reduced tumor volumes		
CEGECPNPVGEEFHPTNHAYIQSLLKRYQPHRVPSTC [hNodal(39-75)]					bound with similar efficiency	
PNPVGEEFHPTNH [hNodal(44-56)]					strongest signal	no longer detectable
